Assay [1] deals with T1, recombinant human ULK1 protein (1-649) (Homo sapiens, UniProt O75385).
T1 construct: recombinant human ULK1 protein (1-649, SignalChem #U01-11G); purchased SignalChem U01-11G
T1 sequence (O75385 1-649): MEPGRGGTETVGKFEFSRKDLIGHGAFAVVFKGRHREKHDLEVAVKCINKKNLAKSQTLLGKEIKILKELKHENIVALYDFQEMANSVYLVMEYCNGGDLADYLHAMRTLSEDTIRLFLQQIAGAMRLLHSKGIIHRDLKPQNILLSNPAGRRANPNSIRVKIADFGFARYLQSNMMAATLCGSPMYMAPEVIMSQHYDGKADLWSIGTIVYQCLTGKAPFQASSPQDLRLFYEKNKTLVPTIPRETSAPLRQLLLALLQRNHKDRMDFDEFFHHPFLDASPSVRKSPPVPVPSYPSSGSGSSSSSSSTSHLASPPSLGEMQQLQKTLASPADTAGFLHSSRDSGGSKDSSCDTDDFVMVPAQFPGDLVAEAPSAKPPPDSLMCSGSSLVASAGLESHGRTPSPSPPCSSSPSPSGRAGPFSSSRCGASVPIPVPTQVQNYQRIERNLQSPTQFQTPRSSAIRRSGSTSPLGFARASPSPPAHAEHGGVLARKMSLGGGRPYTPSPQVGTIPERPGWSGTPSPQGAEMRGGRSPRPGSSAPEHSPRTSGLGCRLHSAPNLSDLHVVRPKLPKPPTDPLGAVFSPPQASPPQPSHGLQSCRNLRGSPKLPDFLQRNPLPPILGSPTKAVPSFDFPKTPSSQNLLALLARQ
Briefly: ULK1 inhibition assay (ADP Glo). In kind it is biochemical. A digest of the protocol: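 Recombinant ULK1 (2 ug/mL) phosphorylated myelin basic protein (80 ug/mL) at 25 uM ATP; ADP formed was detected by ADP-Glo after 1 h. Compounds ran in triplicate, 16-dose 3-fold serial dilution from 30 uM, to give IC50.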

The next assay addresses T2, NanoLuc®-ULK1 Fusion (Homo sapiens, UniProt O75385).
T2 construct: host or cells: HEK293T
T2 sequence (O75385 1-1050): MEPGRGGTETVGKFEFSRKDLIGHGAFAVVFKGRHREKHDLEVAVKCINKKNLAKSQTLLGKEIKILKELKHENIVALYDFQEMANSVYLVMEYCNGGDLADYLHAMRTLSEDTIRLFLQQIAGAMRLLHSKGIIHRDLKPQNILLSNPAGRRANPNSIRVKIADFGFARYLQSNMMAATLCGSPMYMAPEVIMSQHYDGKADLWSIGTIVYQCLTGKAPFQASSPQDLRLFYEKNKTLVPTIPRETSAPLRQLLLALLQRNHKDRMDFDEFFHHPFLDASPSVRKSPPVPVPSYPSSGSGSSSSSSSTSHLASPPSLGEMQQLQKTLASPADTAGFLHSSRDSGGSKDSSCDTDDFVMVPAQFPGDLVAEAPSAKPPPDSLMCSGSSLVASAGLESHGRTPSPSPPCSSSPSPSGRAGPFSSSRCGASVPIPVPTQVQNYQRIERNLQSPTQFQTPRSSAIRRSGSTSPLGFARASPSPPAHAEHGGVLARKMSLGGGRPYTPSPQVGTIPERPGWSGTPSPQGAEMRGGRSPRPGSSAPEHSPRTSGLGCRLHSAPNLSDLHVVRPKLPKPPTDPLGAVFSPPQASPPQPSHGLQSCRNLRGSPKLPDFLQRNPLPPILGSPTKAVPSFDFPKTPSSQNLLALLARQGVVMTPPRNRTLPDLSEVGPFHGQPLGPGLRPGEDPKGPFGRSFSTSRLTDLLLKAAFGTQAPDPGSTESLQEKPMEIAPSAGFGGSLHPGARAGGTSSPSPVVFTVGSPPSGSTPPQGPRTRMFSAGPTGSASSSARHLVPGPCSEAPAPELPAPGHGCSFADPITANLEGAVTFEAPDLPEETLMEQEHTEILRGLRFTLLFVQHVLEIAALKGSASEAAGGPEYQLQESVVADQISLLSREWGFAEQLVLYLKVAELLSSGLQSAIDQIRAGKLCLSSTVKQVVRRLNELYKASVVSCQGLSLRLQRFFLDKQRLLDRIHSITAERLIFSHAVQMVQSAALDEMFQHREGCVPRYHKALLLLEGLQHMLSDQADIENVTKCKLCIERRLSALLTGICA
Briefly: ULK1 NanoBRET assay in HEK293T cells. Type of assay: cell-based. The method, then: IC50s were also measured by ULK1 NanoBRET assay according to the following protocol: Human embryonic kidney cells (HEK293T) were transfected with NanoLuc®-ULK1 Fusion Vector (Promega #NV2211) using jetPRIME transfection reagent (Polyplus Transfection #114-15). Following 24 h, cells were trypsinized and resuspended in Opti-MEM® I (1×), Reduced Serum Medium (Gibco, #11058-021). Approximately, 7,000 cells per well (in 34 μL total volume) were replated into non-binding surface 384 well plates. Complete NanoBRET 20× Tracer K-5 reagent was prepared according to the manufacturer's directions and 2 μL were added to each well of the 384 plate (assay plate). The assay plate was mixed on an orbital shaker for 15 seconds at 700 rpm. Compounds were serially diluted at 200× final concentration in 100% DMSO, then diluted to 10× final concentration in assay media (Opti-MEM® I, Reduced Serum Medium). Next, 4 μL 10× test compounds were added to each well of the assay plate, followed by mixing at 700 rpm for 15 seconds. The assay plate was incubated for 2 h in a 37 C incubator with 5% CO2 and then equilibrated to RT for 15 min. The 3× Complete Substrate plus Inhibitor Solution was prepared according to the manufacturer's directions with a concentration of Extracellular NanoLuc® Inhibitor of 60 μM to be used at a working concentration of […]. The 3× Complete Substrate plus Inhibitor Solution was mixed and 20 μL per well was added to the assay plate and incubated at RT for 2-3 min. Donor emission wavelength (450 nm) and acceptor emission wavelength (610 nm) were measured using an assay compatible luminometer (see manufacturer's specifications).

Setting [2] is: Table 1, 25 uM ATP, MBP substrate, one hour.

From US20230135635A1, “INHIBITORS OF ULK1/2 AND METHODS OF USING SAME” (SALK INSTITUTE FOR BIOLOGICAL STUDIES, priority 2020, published 2023) come the findings set out here.

Take `CC(=O)N1CCc2cc(Nc3ncc(C(F)(F)F)c(NC4CC4)n3)ccc2C1` [Compound A19]: the IC50 in assay [1] (setting [2]) was below 1 nM; against NanoLuc®-ULK1 Fusion (Table 1, 2 h incubation), below 100 nM.

Regarding `O=C(CN1CCc2cc(Nc3ncc(C(F)(F)F)c(NC4CC4)n3)ccc2C1)N1CCOCC1` [Compound A47], the IC50 in assay [1] (setting [2]) was below 1 nM; on NanoLuc®-ULK1 Fusion (Table 1, 2 h incubation) it was below 100 nM.

As for `FC(F)(F)c1cnc(Nc2ccc3c(c2)CCN(Cc2c[nH]cn2)C3)nc1NC1CC1` [Compound A51], the IC50 is below 1 nM in assay [1] (setting [2]) and below 100 nM at NanoLuc®-ULK1 Fusion (Table 1, 2 h incubation).

As to `FC(F)(F)c1cnc(Nc2ccc3c(c2)CNC3)nc1NC1CC1` [Compound A55], the IC50 in assay [1] (setting [2]) was below 1 nM; on NanoLuc®-ULK1 Fusion (Table 1, 2 h incubation), below 100 nM.

Turning to `C#CCC(=O)N1CCc2cc(Nc3ncc(C(F)(F)F)c(NC4CC4)n3)ccc2C1` [Compound A84], the IC50 in assay [1] (setting [2]) is 1 to 10 nM; against NanoLuc®-ULK1 Fusion (Table 1, 2 h incubation) it was above 100 nM.

In the case of `CNC(=O)c1ccccc1Nc1nc(Nc2ccc3c(c2)CCN(CCOC)C3)ncc1Cl` [Compound A117, 2-((5-Chloro-2-((2-(2-methoxyethyl)-1,2,3,4-tetrahydroisoquinolin-6-yl)amino)pyrimidin-4-yl)amino)-N-methylbenzamide], the concentration for half-maximal inhibition (IC50) in assay [1] (setting [2]) was 1 to 10 nM; against NanoLuc®-ULK1 Fusion (Table 1, 2 h incubation), below 100 nM.

`CNC(=O)c1ccccc1Nc1nc(Nc2ccc3c(c2)CCN(CCOC)C3)ncc1Br` [Compound A118, 2-((5-Bromo-2-((2-(2-methoxyethyl)-1,2,3,4-tetrahydroisoquinolin-6-yl)amino)pyrimidin-4-yl)amino)-N-methylbenzamide]: the IC50 in assay [1] (setting [2]) is 1 to 10 nM; against NanoLuc®-ULK1 Fusion (Table 1, 2 h incubation), below 100 nM.

For `CNC(=O)c1ccccc1Nc1nc(Nc2ccc3c(c2)CCN(CCOC)C3)ncc1C(F)(F)F` [Compound A119, 2-((2-((2-(2-Methoxyethyl)-1,2,3,4-tetrahydroisoquinolin-6-yl)amino)-5-(trifluoromethyl)pyrimidin-4-yl)amino)-N-methylbenzamide], the IC50 is 1 to 10 nM in assay [1] (setting [2]) and below 100 nM at NanoLuc®-ULK1 Fusion (Table 1, 2 h incubation).

`CNC(=O)c1ccccc1Nc1nc(Nc2ccc3c(c2)CCNC3)ncc1C(F)(F)F` [Compound A120, N-Methyl-2-((2-((1,2,3,4-tetrahydroisoquinolin-6-yl)amino)-5-(trifluoromethyl)pyrimidin-4-yl)amino)benzamide]: the IC50 in assay [1] (setting [2]) was 1 to 10 nM; against NanoLuc®-ULK1 Fusion (Table 1, 2 h incubation), below 100 nM.

For `COCCN1CCc2cc(Nc3ncc(C(F)(F)F)c(NC(C)C)n3)ccc2C1` [Compound A122, N^4-Isopropyl-N^2-(2-(2-methoxyethyl)-1,2,3,4-tetrahydroisoquinolin-6-yl)-5-(trifluoromethyl)pyrimidine-2,4-diamine], the concentration for half-maximal inhibition (IC50) in assay [1] (setting [2]) is 1 to 10 nM; on NanoLuc®-ULK1 Fusion (Table 1, 2 h incubation), below 100 nM.

In the case of `CNC(=O)c1ccccc1Nc1nc(Nc2ccc3c(c2)OCCO3)ncc1Br` [Compound E4, 2-((5-Bromo-2-((2,3-dihydrobenzo[b][1,4]dioxin-6-yl)amino)pyrimidin-4-yl)amino)-N-methylbenzamide], the IC50 in assay [1] (Table 3) was 5 to 100 nM; against NanoLuc®-ULK1 Fusion (Table 3), above 100 nM.

With `CNC(=O)c1ccccc1Nc1nc(Nc2ccc3c(c2)OCO3)ncc1Br` [Compound E5, 2-((2-(Benzo[d][1,3]dioxol-5-ylamino)-5-bromopyrimidin-4-yl)amino)-N-methylbenzamide], the IC50 was 5 to 100 nM in assay [1] (Table 3) and above 100 nM against NanoLuc®-ULK1 Fusion (Table 3).

For `CNC(=O)c1ccccc1Nc1nc(Nc2ccc3c(c2)OCO3)ncc1C(F)(F)F` [Compound E6, 2-((2-(Benzo[d][1,3]dioxol-5-ylamino)-5-(trifluoromethyl)pyrimidin-4-yl)amino)-N-methyl benzamide], the results for the IC50 (in assay [1] (Table 3); against NanoLuc®-ULK1 Fusion (Table 3)) were 5 to 100 nM and above 100 nM, respectively.

Regarding `CNC(=O)c1ccccc1Nc1nc(Nc2ccc3c(c2)OCCO3)ncc1C(F)(F)F` [Compound E7, 2-((2-((2,3-Dihydrobenzo[b][1,4]dioxin-6-yl)amino)-5-(trifluoromethyl)pyrimidin-4-yl)amino)-N-methylbenzamide], the 50% inhibitory concentration (IC50) in assay [1] (Table 3) is 5 to 100 nM; against NanoLuc®-ULK1 Fusion (Table 3) it was above 100 nM.

Regarding `CNC(=O)c1ccccc1Nc1nc(Nc2cc(OC)c(OC)c(OC)c2)ncc1C#N` [Compound E9, 2-((5-cyano-2-((3,4,5-trimethoxyphenyl)amino)pyrimidin-4-yl)amino)-N-methylbenzamide], the concentration for half-maximal inhibition (IC50) against NanoLuc®-ULK1 Fusion (Table 3) is below 100 nM.

The compound `CNC(=O)c1ccccc1Nc1nc(Nc2cc(OC)c(OC)c(OC)c2)ncc1C1CC1` [Compound E10, 2-((5-Cyclopropyl-2-((3,4,5-trimethoxyphenyl)amino)pyrimidin-4-yl)amino)-N-methyl-benzamide] showed an IC50 against NanoLuc®-ULK1 Fusion (Table 3) above 100 nM.

For the compound `CNC(=O)c1ccccc1Nc1nc(Nc2cc(OC)c(OC)c(OC)c2)ncc1C` [Compound E11, N-Methyl-2-((5-methyl-2-((3,4,5-trimethoxyphenyl)amino)pyrimidin-4-yl)amino)benzamide], the IC50 against NanoLuc®-ULK1 Fusion (Table 3) is above 100 nM.

Compound `CNC(=O)c1ccccc1Nc1nc(Nc2cc(OC)c(OC)c(OC)c2)ncc1F` [Compound E12, 2-((5-Fluoro-2-((3,4,5-trimethoxyphenyl)amino)pyrimidin-4-yl)amino)-N-methylbenzamide] had an IC50 against NanoLuc®-ULK1 Fusion (Table 3) above 100 nM.

`CNC(=O)c1ccccc1Nc1nc(Nc2cc(OC)c(OC)c(OC)c2)ncc1I` [Compound E13, 2-((5-iodo-2-((3,4,5-trimethoxyphenyl)amino)pyrimidin-4-yl)amino)-N-methylbenzamide]: on NanoLuc®-ULK1 Fusion (Table 3), the IC50 was below 100 nM.
